Measured values as given in EP4144350B1, “TREATMENT OR PREVENTION OF VASCULAR MALFORMATION” (Universitätsmedizin Greifswald, priority 2021, dated 2023).

Tests used:
Assay type in all cases: cell-based, human
[1] = system: CCM3^-/- CI-huVECs in co-culture with CCM3^+/+ CI-huVECs; assay: Spike-in co-culture assay / apoptosis compound library screening: CCM3 knockout allele frequency by amplicon deep sequencing; conditions: for Knockout allele frequencies: 10 µM of each compound, six days, added 5 h and 3 days after seeding, DMSO-treated co-culture controls 33.5 %
Description: Clonally expanded CI-huVEC lines with biallelic loss-of-function variants in the first coding exon of CCM3 have been described before or were established according to a published CRISPR/Cas9 genome editing protocol. Blood outgrowth endothelial cells (BOECs) were cultured in EGM-2 medium (Lonza, Basel, Switzerland) supplemented with 18 % FCS. With the approval of the local ethics committee (University Medicine Greifswald, Germany; No.: BB 047/14a), CCM1^-/- BOECs had been established previously from CCM1^+/- BOECs of a CCM1 mutation carrier with CRISPR/Cas9 genome editing. Mutant and wild-type ECs were co-cultured in 96-well plates under standard culture conditions with the indicated mutant-to-wild-type ratios. 2500 cells were seeded per well.
An apoptosis compound library with 189 small molecules that target apoptosis, survival and proliferation was used in a high throughput screening approach (HY-L003[HY-LD-000001651]; MedChem Express, Monmouth Junction, NJ, USA). Co-cultures were treated with 10 µM of each substrate for six days. Compounds were added 5 h and 3 days after cell seeding.
NSC59984 (IUPAC: (2E)-1-(4-Methyl-1-piperazinyl)-3-(5-nitro-2-furyl)-2-propen-1-one, HY19726, MedChem Express), was used for individual experiments with the indicated concentrations.
The fraction of mutant alleles in co-culture were analysed by amplicon deep sequencing or T7EI cleavage assay. In brief, genomic target regions were first amplified by PCR. For T7E1 cleavage assays, heteroduplexes were formed and digested with T7EI enzyme (New England Biolabs, Frankfurt am Main, Germany). Cleavage products were visualised by gel electrophoresis and analysed with the Image Lab software (v6.0, Bio-Rad, Hercules, CA, USA). For NGS analysis, sequencing adapters and individual barcodes were introduced in a second round of PCR [7]. Sequencing libraries were pooled and sequenced on a MiSeq instrument with 2 x 150 cycles (Illumina, San Diego, CA, USA). The data were analysed with the SeqNext software (JSI Medical Systems, Ettenheim, Germany).

[2] = system: CI-huVECs; assay: Bright-field microscopy of EC morphology after compound treatment; conditions: library screening follow-up (Fig. 14)
[3] = system: CCM3^+/+ and CCM3^-/- CI-huVECs; assay: Cell viability after compound treatment; conditions: for Cell viability differences between CCM3^+/+ and CCM3^-/- CI-huVECs: 72 h after treatment (Fig. 15)
[4] = system: caspase-3; assay: Caspase-3 activity assay
Description: The proliferation rate of mutant and wild-type ECs in monoculture was quantified with the CyQuant® Cell Proliferation Assay Kit (C7026, Thermo Fisher Scientific). To discriminate the proliferation rates of CCM3^+/+ and CCM3^-/- CI-huVEC in co-culture, the CyQuant® Cell Proliferation Assay results were combined with mutant allele frequencies that had been determined by amplicon deep sequencing. To analyse their sensitivity to apoptosis, mutant and wild-type ECs were seeded in 96-well plates with 15.000 cells per well, and treated with staurosporine (S440, Sigma-Aldrich, St. Louis, MO, USA) 24 h later. The Caspase-3 DEVD-R110 Fluorometric HTS Assay Kit (30009, Biotium, Fremont, CA, USA), the Cell Meter™ Caspase 8 Activity Apoptosis Assay Kit (22798, AAT Bioquest, Sunnyvale, CA, USA), and the Cell Meter™ Caspase 9 Activity Apoptosis Assay Kit (22799, AAT Bioquest) were used following the manufacturer's instructions.

Row | Compound | Knockout allele frequencies [1] | EC morphology / endothelial phenotype [2] | Cell viability differences between CCM3^+/+ and CCM3^-/- CI-huVECs [3] | Cell viability ([3]; Fig. 15) | Apoptosis / caspase-3 activation ([4]; Fig. 16) | Reversal of the NSC59984 (10 µM) effect on clonal expansion of CCM3^-/- cells ([1]; UC2288 1 to 10 µM together with NSC59984 10 µM (Fig. 28)) | Caspase-3 activities ([4]; treatment for 24 h, CCM3^+/+ and CCM3^-/- CI-huVECs (Fig. 16))
1 | CC(C)S(=O)(=O)c1ccc2nccc(Nc3ccc4scnc4c3)c2c1 [GSK-872] | 65.1% | more compact EC morphology | increased the viability of CCM3^-/- CI-huVECs | increased cell viability at low concentrations | induced moderate caspase-3 activation |  | 
2 | O=C(Nc1ccc(Cl)c(C(F)(F)F)c1)NC1CCC(Oc2ccc(C(F)(F)F)cn2)CC1 (stereo not shown) [UC2288, reference compound] |  |  |  |  |  | could not be reversed | 
3 | C=C1C(=O)O[C@@H]2C[C@@]3(C)CCCC(=C)[C@@H]3C[C@H]12 [isoalantolactone, reference compound] | 7.7% | induced an abnormal endothelial phenotype and significant cell death | No cell viability differences |  |  |  | did not increase caspase-3 activities
